According to US9696323B2, “Biomarkers for chagas disease related cardiomyopathy” (THE BOARD OF REGENTS OF THE UNIVERSITY OF TEXAS SYSTEM, priority 2013, dated 2017):

System: T. cruzi
Experiment: 2D-GE plasma proteome profile (differential protein expression) of T. cruzi-infected rats treated with PBN and/or BZ
Type: in vivo, rat
Conditions: for expression of inflammation-associated plasma proteins: APOH
Excerpt: Certain embodiments include biomarkers identified in a previous study. Parasite persistence and oxidative damage in the heart are known to be of pathological significance during Chagas disease (Zacks et al., (2005) An Acad Bras Cienc, 77, 695-715; Gupta et al., (2009) Interdiscip Perspect Infect Dis, 2009, 190354). […] In the previous study the inventors identified 92 proteins that were differentially expressed or oxidized in chagasic plasma. Functional analysis allocated a majority of these proteins to inflammation/immunity and lipid metabolism categories, and to molecular pathways associated with cardiovascular dysfunction, e.g., myocardial infarction, hypertrophy, and fibrosis, and pulmonary embolism and hypertension. Some proteins in chagasic rats treated with PBN and/or BZ were allocated to curative pathways (immune regulation and cardiac remodeling). The 2D-GE results were validated by Western blotting. […] Increased plasma levels of GSN, MYL2, and VIM were directly correlated with the severity of cardiac disease in human chagasic patients. […] These findings have utility in diagnosing disease severity and designing suitable therapy for management of human chagasic patients.
Ingenuity Pathway Analysis (IPA) is a highly curated and comprehensive software used for the integration of proteins into networks and pathways with biological meaning (Thomas and Bonchev, (2010). Hum Genomics, 4, 353-360). Network analysis of the plasma proteome profile of chagasic rats identified four major sub-networks linked to host response to T. cruzi infection and disease development (Table V). The maximal numbers of the differentially expressed plasma proteins (19 proteins) in chagasic rats were associated with antigen presentation and inflammatory response category (Table V) and indicators of persistent inflammation, known to be of pathological significance in Chagas disease (Dhiman et al., (2009) Clinical and Vaccine Immunology, 16, 660-666; Tanowitz et al., (2009) Prog Cardiovasc Dis, 51, 524-539; Junqueira et al., (2010) Expert Rev Mol Med, 12, e29). Following functional analysis of the inflammation-associated proteins, 12 proteins (APOA1, APOE, C3, CFB, CFH, FGB, GSN, KRT10, PLG, SCG2, SERPINA1, and SERPINC1) were identified as being involved in immune cell trafficking and cell movement of leukocytes, granulocytes, phagocytes, neutrophils, and dendritic and antigen presenting cells. Some of the differentially expressed proteins in inflammation category were associated with activation (APOE, C3, CFH, GC and PLG), chemotaxis (C3, SCG2, SERPINA1, SERPINC1), and infiltration of leukocytes (APOA1, APOE, C3, PLG, KRT10) and neutrophils (C3, CFB, CFH, PLG). Up regulation of APOE, APOA1, APOH, GC and PLG in chagasic plasma was indicative of activation, binding and accumulation of macrophages in the disease state. Of the 19 differentially expressed inflammation-associated proteins, 11 proteins (APOE, C3, CFB, CFH, GSN, KRT10, SCG2, SERPINA1, SERPINC1, GC, and PLG) were carbonylated in chagasic plasma. […] Other proteins (APOE, C3, KRT3, and SCG2) were exposed to oxidation due to T. cruzi-induced, acute oxidative stress, but were normalized in expression and oxidation during the chronic phase.
Seventeen of the differentially expressed proteins in chagasic plasma, i.e., AFM, C4BPA, CACNA1D, DLGAP2, GC, KNG1, MUG1, MYLPF, MY05A, MY05B, PRPH, PZP, RAI14, and SCG2, were allotted to the lipid metabolism/molecular transport/small molecule biochemistry category (Table V) and functionally linked by IPA network analysis to lipid, fatty acid, and carbohydrate metabolism. A majority of the proteins in this category, i.e., ALB, APOA1, APOA4, APOE, APOH, C3, GC, GNAQ, MY05A, PLG, SCD2, SERPINA1, SERPINC1 and VIM, were linked to the synthesis, metabolism, transport, and modification of lipids and fatty acids, and to uptake and release or efflux of lipids, eicosanoids, and cholesterol. […]

[1] = plasma, RAP group (acute infection)

Compound: CC(C)(C)/[N+]([O-])=C/c1ccccc1 [PBN]
- expression of inflammation-associated plasma proteins (acutely infected rats, APOE, CFH, PLG and SCG2): normalized or regulated the expression
- expression of inflammation-associated plasma proteins (chronically infected rats, GC, GSN and PLG): normalized or regulated the expression
- expression level of CFB, GSN, C3, and SERPINC1 (infected rats): partly regulated
- Spot# 12, 180 Average Normalized Density × 100,000 [1]: 21.47
- Spot# 34 Average Normalized Density × 100,000 [1]: 0.37
- Spot# 37, 593 Average Normalized Density × 100,000 [1]: 14.38
- Spot# 49, 673 Average Normalized Density × 100,000 [1]: 19.12
- Spot# 52, 54, 302 Average Normalized Density × 100,000 [1]: 9.80
- Spot# 53, 225 Average Normalized Density × 100,000 [1]: 8.76
- Spot# 72 Average Normalized Density × 100,000 [1]: 18.10
- Spot# 73, 705, 787 Average Normalized Density × 100,000 [1]: 46.94
- Spot# 77 Average Normalized Density × 100,000 [1]: 16.3
- Spot# 88 Average Normalized Density × 100,000 [1]: 74.61
- Spot# 94 Average Normalized Density × 100,000 [1]: 1.84
- Spot# 115, 123 Average Normalized Density × 100,000 [1]: 22.27
- Spot# 149 Average Normalized Density × 100,000 [1]: 0.78
- Spot# 153 Average Normalized Density × 100,000 [1]: 27.07
- Spot# 177 Average Normalized Density × 100,000 [1]: 3.71
- Spot# 181 Average Normalized Density × 100,000 [1]: 3.99
- Spot# 184, 257, 328 Average Normalized Density × 100,000 [1]: 4.54
- Spot# 207, 555 Average Normalized Density × 100,000 [1]: 13.23
- Spot# 215 Average Normalized Density × 100,000 [1]: 1.73
- Spot# 266 Average Normalized Density × 100,000 [1]: 0.75
- Spot# 299 Average Normalized Density × 100,000 [1]: 1.92
- Spot# 315 Average Normalized Density × 100,000 [1]: 6.24
- Spot# 334 Average Normalized Density × 100,000 [1]: 0.61
- Spot# 341 Average Normalized Density × 100,000 [1]: 0.59
- Spot# 355, 359 Average Normalized Density × 100,000 [1]: 2.99
- Spot# 382, 385, 378, 572, 578, 595 Average Normalized Density × 100,000 [1]: 33.76
- Spot# 389 Average Normalized Density × 100,000 [1]: 37.55
- Spot# 430 Average Normalized Density × 100,000 [1]: 22.40
- Spot# 434, 678 Average Normalized Density × 100,000 [1]: 55.14
- Spot# 439 Average Normalized Density × 100,000 [1]: 4.04
- Spot# 452 Average Normalized Density × 100,000 [1]: 18.92
- Spot# 464 Average Normalized Density × 100,000 [1]: 3.89
- Spot# 479 Average Normalized Density × 100,000 [1]: 23.96
- Spot# 493 Average Normalized Density × 100,000 [1]: 9.82
- Spot# 515 Average Normalized Density × 100,000 [1]: 6.87
- Spot# 524 Average Normalized Density × 100,000 [1]: 53.74
- Spot# 551, 587, 908 Average Normalized Density × 100,000 [1]: 88.04
- Spot# 559 Average Normalized Density × 100,000 [1]: 24.39
- Spot# 571 Average Normalized Density × 100,000 [1]: 7.84
- Spot# 576, 620 Average Normalized Density × 100,000 [1]: 18.08
- Spot# 586, 614 Average Normalized Density × 100,000 [1]: 50.44
- Spot# 592 Average Normalized Density × 100,000 [1]: 15.61
- Spot# 604 Average Normalized Density × 100,000 [1]: 22.81
- Spot# 606 Average Normalized Density × 100,000 [1]: 9.60
- Spot# 627 Average Normalized Density × 100,000 [1]: 30.23
- Spot# 638 Average Normalized Density × 100,000 [1]: 4.42
- Spot# 649 Average Normalized Density × 100,000 [1]: 40.69
- Spot# 651 Average Normalized Density × 100,000 [1]: 94.03
- Spot# 655 Average Normalized Density × 100,000 [1]: 240.6
- Spot# 672 Average Normalized Density × 100,000 [1]: 7.34
- Spot# 676 Average Normalized Density × 100,000 [1]: 14.69
- Spot# 691 Average Normalized Density × 100,000 [1]: 49.99
- Spot# 715 Average Normalized Density × 100,000 [1]: 10.83
- Spot# 724 Average Normalized Density × 100,000 [1]: 1.72
- Spot# 728 Average Normalized Density × 100,000 [1]: 0.76
- Spot# 733 Average Normalized Density × 100,000 [1]: 2.24
- Spot# 740 Average Normalized Density × 100,000 [1]: 7.81
- Spot# 745 Average Normalized Density × 100,000 [1]: 4.51
- Spot# 749 Average Normalized Density × 100,000 [1]: 4.71
- Spot# 766 Average Normalized Density × 100,000 [1]: 3.20
- Spot# 779, 909 Average Normalized Density × 100,000 [1]: 5.45
- Spot# 796 Average Normalized Density × 100,000 [1]: 9.97
- Spot# 814 Average Normalized Density × 100,000 [1]: 0.60
- Spot# 817 Average Normalized Density × 100,000 [1]: 12.14
- Spot# 820, 1081 Average Normalized Density × 100,000 [1]: 4.59
- Spot# 827 Average Normalized Density × 100,000 [1]: 17.91
- Spot# 832 Average Normalized Density × 100,000 [1]: 6.23
- Spot# 860 Average Normalized Density × 100,000 [1]: 3.06
- Spot# 867 Average Normalized Density × 100,000 [1]: 2.56
- Spot# 881 Average Normalized Density × 100,000 [1]: 13.92
- Spot# 897 Average Normalized Density × 100,000 [1]: 4.82
- Spot# 900 Average Normalized Density × 100,000 [1]: 25.94
- Spot# 906 Average Normalized Density × 100,000 [1]: 49.40
- Spot# 966 Average Normalized Density × 100,000 [1]: 53.33
